Several values for one entry are separate records, joined by “and”; a condition that tells them apart may be missing. Identical values can stand only once.

This assay relates to human striated muscle cell innervation with spinal cord and spinal ganglion explants from rat embryos. The format is cell-based, human (muscle cells), rat (embryo explants).

Turning to `C/C=C/C=C\CC/C=C/C(=O)NCC(C)C` [Pure spilanthol, spilanthol], the “Effect on muscle contractions (conclusion)” value was “lead to a blockage of muscle contractions”; the “Frequency of contractions (%), incubation without washout, 5 min” value is 0% and 7%; the “Frequency of contractions (%), incubation without washout, 1 h” value worked out at 0%; the “Frequency of contractions (%), incubation without washout, 6 h” value is 0% and 4%. Besides, the “Frequency of contractions (%), recuperation after washout, 1 h” value amounted to 0%; the “Incubation time after which muscle contractions are blocked” value came to 5 min; the “Recuperation of contractile activity (conclusion)” value was “not observed”; the “Time the fibres remain blocked after elimination of the substance” value amounted to 24 h. Also, the “Time until which the blockage is maintained during incubation” value was found to be 6 h.

(Values after US7531193B2 (priority 2004, dated 2009).)
